Data reported in the METLIN SMRT retention time set (Domingo-Almenara et al. 2019).

Assay: gradient 5% acetonitrile 3 min, to 50% in 2 min, to 85% in 15 min, held 3 min, 100 µL/min
Settings: column: Zorbax Extend-C18 2.1 x 50 mm; eluents: water / acetonitrile, 0.1% formic acid
Method in brief: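 The mobile phases were water and acetonitrile, each with 0.1% formic acid, pumped at 100 μL/min through a Zorbax Extend-C18 column (2.1 × 50 mm, 1.8 μm). Pure standards were injected as mixtures of ~100 molecules and detected by a quadrupole time-of-flight mass spectrometer in positive and negative ionization mode. Retention time came from computationally picked adduct peaks, each inspected by hand.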

RP-LC retention time	Structure (SMILES)
777 s	NC(=O)c1ccc(Cl)c2ccccc12
655 s	Cc1ccc(NC(=O)Cn2cnc3nc(N4CCC(C(=O)NC5CC5)CC4)sc3c2=O)c(F)c1
1080 s	CCOc1ccc(N2C(=O)C3N=NN(Cc4nc(-c5cccc(Br)c5)no4)C3C2=O)cc1 (stereo not given)
790 s	CCn1cc(S(=O)(=O)Nc2ccccc2F)c2cccnc21
1080 s	Cc1ccc(-c2noc(-c3nn(CC(=O)N4CCCC4)c4ccccc34)n2)cc1
1140 s	CCc1ccc(-c2nc(-c3ccc4nnc(CC)n4c3)no2)cc1
724 s	Cc1ccccc1CC(=O)Nc1cc(-c2nnc(C3CC3)o2)sc1C
653 s	Cc1ccccc1OCC(=O)N1CCN(c2nc(CN3CCOCC3)cs2)CC1
847 s	COc1cccc(-c2nc(C3CCN(C(=O)c4n[nH]c5c4CCCC5)CC3)no2)c1
795 s	Cc1ccc(CCNC(=O)c2ncn3c2C(=O)N(C2CC2)C(C)(C(=O)NC2CCCC2)C3)cc1 (stereo not given)
559 s	Cc1cc(C)c2c(N(C)C)nc(C(=O)NC(C)c3ccccn3)nc2n1 (stereo not given)
782 s	CCCCN(C)C(=O)C1CCCN(c2nnc(C)c3c(C)n(-c4ccc(Cl)cc4)nc23)C1 (stereo not given)
674 s	Cc1nc2c(C(=O)NCCN(C)C)cnn2c(C)c1Cc1ccccc1Cl
891 s	O=C(c1cccc(Cl)c1)N1CCC(Cc2nnc(-c3ccccc3)o2)CC1
685 s	O=C(CN1CCC2(CC1)N=C(c1ccccc1)C(=O)N2)Nc1ccc(Br)cc1F
758 s	CCOc1ccc(-c2nc3ncccn3c2NCc2ccccc2)cc1
711 s	COC(=O)c1cnc2nc(C)ccc2c1Nc1ccc(Cl)cc1F
980 s	COc1cc(-c2noc(CN3C(=O)C(C)Oc4ccccc43)n2)cc(OC)c1OC (stereo not given)
802 s	Cc1cc(C(=O)Nc2ccc(N3CCOCC3)cc2)nc2cc(-c3ccccn3)nn12
722 s	COc1ccc(C)cc1NC(=O)Nc1c(-c2ccc(C)cc2)nc2ccccn12
513 s	CC(O)c1ccc(-c2ccc(CNCCCn3ccnc3)o2)cc1 (stereo not given)
761 s	C=CCNC(=O)N1CCCN(C2=NS(=O)(=O)C(c3ccc(Cl)cc3)=C2C)CC1
1380 s	Cc1ccc(-c2noc(-c3sccc3NC(=O)c3ccnn3C)n2)cc1
1180 s	Cc1ccc2c(c1)N(Cc1nc(-c3cccc(Br)c3)no1)C(=O)CO2
753 s	CCNC(=O)c1nnc(-c2ccc(S(=O)(=O)N3CCCC3)cc2)o1

RP-LC retention time	Structure (SMILES)
633 s	CC(C)CCN(Cc1ccco1)C(=O)Cn1nc2n(c1=O)CCC(N)CC2 (stereo not given)
872 s	CSc1ccc(CNS(=O)(=O)c2cc3c(s2)CCN(C(=O)C2CC2)C3)cc1
977 s	Cc1cccc(CS(=O)(=O)N2CC(c3nc(Cc4ccccc4)no3)C2)c1
650 s	COCC1CCN(C(=O)COc2ccc(NC(=O)C3CC3)cn2)CC1
773 s	CCn1nnc2ccc(-c3noc(CNC(=O)c4ccccc4)n3)cc21
686 s	CNC(=O)CN(C)C(=O)c1cc2c(s1)N(C)CCCC2
776 s	O=C(COc1ccccc1)N1CCN(c2cc(-c3ccccc3)[nH]n2)CC1
800 s	O=S(=O)(Cc1ccc(Cl)cc1)Nc1cccn2ncnc12
1060 s	CCN(CC)S(=O)(=O)c1ccc2c(c1)cc(C(=O)NCCc1c[nH]c3ccc(Cl)cc13)n2C
1260 s	CCOc1ccc(-c2nc(-c3ccc4c(c3)oc(=O)n4C(C)C)no2)cc1OCC
808 s	Cc1cc(C(F)F)n2nc(C(=O)N3CCCC3c3ccc(F)cc3)nc2n1 (stereo not given)
973 s	CC1CCN(C(=O)C2c3ccccc3CCN2CC(=O)NCc2cccc(Cl)c2)CC1 (stereo not given)
1150 s	Cc1sc2ncnc(SCc3ccco3)c2c1C
818 s	CCCNC(=O)c1cn(-c2cc(-c3nc(C4CC4)no3)ccn2)cn1
640 s	COC(=O)c1c(-c2cccc(F)c2)noc1NCCN1CCCC1
903 s	O=C(NCC1CCN(C(=O)c2cc3ccccc3o2)CC1)c1cc(-c2ccccc2)on1
689 s	COc1ccc(OC)c(-c2ccc(=O)n(CC(=O)Nc3ccc(-n4cnnn4)cc3)n2)c1
618 s	CCOC(=O)Cn1c(CNC(=O)c2ccco2)nc2ccccc21
637 s	O=C(Nc1ccc2c(c1)OCCO2)N1CCCC(Cn2cnc3cccnc32)C1 (stereo not given)
873 s	COc1cccc(CNC(=O)Cn2c(-c3ccc(F)cc3)ncc(C#N)c2=O)c1
867 s	CCS(=O)(=O)Nc1cccc(OCc2nnc(-c3ccc(C)cc3)o2)c1
1080 s	Cc1nc(SCC(=O)Nc2ccc(Cl)cc2C(F)(F)F)cc(-c2ccccn2)n1
636 s	O=C(O)c1cnc(N2CCCCC2)nc1-c1ccncc1
865 s	c1cc2c(cc1-c1nnc(C3CCC3)o1)OCO2
899 s	Cc1ccc(CNC(=O)C2(C)CCCN(C(=O)Nc3ccc(F)cc3)C2)cc1 (stereo not given)

The next lines start with the compound.

Structure (SMILES)	RP-LC retention time
O=C(Cc1ccccc1F)Nc1cnc(-c2cccnc2)nc1	652 s
Cc1nc(C)c(C(=O)Nc2cc(F)ccc2F)s1	783 s
O=C(NC1CCCC1)c1nc(C(=O)N2CCN(c3cccc(Cl)c3)CC2)cs1	1020 s
Cc1cc(=O)n2c(-c3ccc(NC(=O)Nc4ccc(F)c(F)c4)cc3)csc2n1	776 s
c1ccc(-n2nnnc2Oc2ccc(CNCCc3c[nH]c4ccccc34)cc2)cc1	748 s
COc1ccc(N2CC(NC(=O)NCCC3=CCCCC3)CC2=O)cc1 (stereo not given)	731 s
Cc1ccc2c(c1)sc1nc(C)c(S(=O)(=O)Nc3ccc(Cl)cc3)c(=O)n12	1160 s
COc1ccc(N2CC(c3noc(-c4ccc(C)cc4C)n3)CC2=O)cc1 (stereo not given)	1000 s
CCOC(=O)N1CCc2c(sc(NC(=O)c3cc(C)on3)c2C(=O)OC)C1	949 s
Cc1cc2c(c(C#N)c1C)NC=NC2C (stereo not given)	641 s
CCCc1ccc(OCC(O)CN2CCN(C)CC2)cc1 (stereo not given)	551 s
CCCn1c(-c2cccc(C(=O)NCc3ccc(C(F)(F)F)cc3)c2)nc2cccnc21	933 s
Cc1cc(C(=O)Nc2nc(-c3ccccc3)cs2)ccc1[N+](=O)[O-]	1080 s
CN(C)c1ccc(/C=C2\SC(=O)N(CC(=O)Nc3ccccc3C(F)(F)F)C2=O)cc1	992 s
COc1ccccc1NC(=O)Cn1c(-c2nc(C(C)C)no2)cccc1=O	927 s
CCOC(=O)C1=C(CN2CCN(CC)CC2)NC(=O)NC1c1ccccc1Cl (stereo not given)	571 s
COc1cc(OC)cc(C(=O)NCC(O)Cc2ccccc2)c1 (stereo not given)	706 s
CCNc1cc(C)nc(N2CCN(C(=O)C(C)(C)C)CC2)n1	632 s
O=C(NC1CCCN(c2cc(-c3ccc(F)cc3)[nH]n2)C1)c1ccc2c(c1)OCO2 (stereo not given)	796 s
COc1ccc(-c2ncc3c(n2)CCN(S(=O)(=O)c2cccc(C(F)(F)F)c2)C3)cc1	1110 s

Structure (SMILES)	RP-LC retention time
O=C(Nc1ccc(F)c(F)c1)c1cnc(-c2ccc(F)cc2)nc1-c1ccncc1	985 s
COc1ccc(-c2nnc(-c3ccc(C)c(S(=O)(=O)N4CCN(C)CC4)c3)o2)cc1OC	646 s
CCc1noc(NC(C)=O)c1-c1ccc(OC)c(S(=O)(=O)NCc2ccc(C)cc2)c1	802 s
O=C(NCC1CCN(Cc2ccccc2F)CC1)C1CCN(c2ccc3nncn3n2)CC1	584 s
COc1cccc(C(=O)N2CCC3(CC2)NCc2ccccc2-n2ccnc23)c1	606 s
CCn1cc2c3c(cccc31)CN(C(=O)Nc1ccc(C)cc1)CC2	978 s
O=C1CC(NC(=O)c2cc(C3CC3)on2)CN1 (stereo not given)	563 s
Nc1ncnc2sc3c(c12)CCCC3	588 s
Cn1nc(C2CCCN2C(=O)C2(c3ccccc3)CC2)n(Cc2ccccc2)c1=O (stereo not given)	830 s
COc1ccc(-c2ccc(=O)n(Cc3nc(-c4cccc(Cl)c4)no3)n2)cc1	1080 s
O=C(Cn1c(=O)n(-c2ccc(F)cc2)c2ncccc21)NCCN1CCCCC1	592 s
COc1ccc(NC(=O)C2CCCN(c3nccnc3Sc3ccccc3)C2)cc1OC (stereo not given)	969 s
CC(Oc1ccc(-c2cnc3ccccc3n2)cc1)C(=O)N1CCN(c2ccccn2)CC1 (stereo not given)	650 s
COc1ccccc1C(=O)NC1(C(F)(F)F)C(=O)N(CC(C)C)C2=C1C(=O)CC(C)(C)C2 (stereo not given)	1070 s
C=CCn1nnnc1NCc1ccc2c(c1)n(C)c(=O)n2C	609 s
COC(=O)CNC(=O)N1CCC(N2CCN(Cc3ccc(C)cc3)C(=O)C2=O)CC1	644 s
COc1ccc2cc(C(=O)N3CCC(CC(=O)NCCc4c[nH]c5ccc(OC)cc45)CC3)[nH]c2c1	759 s
CC(C)c1noc(-c2ccnc(-n3cnc(C(=O)NC4CCCCCC4)c3)c2)n1	771 s
CN1c2cc(Cl)ccc2C(=O)NC12CCN(C(=O)NCCc1ccccc1)CC2	757 s
COCCn1cc(CC(=O)N2CCN(c3ccccn3)CC2)c2cccnc21	569 s
